Drawing on PubChem BioAssay (NCI), this text covers TGI for two compounds.

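Values below derive from 48-hour exposures of cells grown in 96-well plates, with endpoints linearly interpolated between the two concentrations bracketing the appropriate inhibition level. TGI is the concentration that stops growth completely.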

What all share (experiment): DTP human tumour cell line panel, 48 h
Assay [1] has as its system HT29 colon.
Assay [2] concerns RPMI-8226 leukemia.
Assay [3] deals with LOX IMVI melanoma.
Assay [4] deals with MOLT-4 leukemia.
Assay [5] concerns OVCAR-5 ovarian.
The test system of assay [6] is SK-MEL-2 melanoma.
Assay [7] deals with A549 NSCLC.
Assay [8] deals with SF-268 CNS.
Assay [9] has as its system HOP-92 NSCLC.
The subject of assay [10] is SNB-19 CNS.
The subject of assay [11] is EKVX NSCLC.
The subject of assay [12] is RXF 393 renal.
Assay [13] deals with SK-MEL-5 melanoma.
The subject of assay [14] is SF-295 CNS.
The subject of assay [15] is MALME-3M melanoma.
The subject of assay [16] is NCI-H23 lung.
For assay [17], the system named is OVCAR-3 ovarian.
Assay [18] relates to UACC-62 melanoma.
For assay [19], the system named is UO-31 renal.
Assay [20] concerns KM12 colon.

Broadly, the TGI is the concentration at which net growth stops. Lower therefore signals greater sensitivity of the cells. On to `O=C(NCCCCCCNC(=O)n1cc(F)c(=O)[nH]c1=O)NCCCOCCOCCCNC(=O)C(O)C(O)C(O)C(O)CO` (stereo not given), for which the total growth inhibition concentration (TGI) in assay [1], in [2], in assay [3], in assay [4], in assay [5] and in assay [6] was above 2.5 µM each time. The total growth inhibition concentration (TGI) in assay [7], in assay [8], in assay [9], in assay [10], in assay [11] and in assay [12] was above 2.5 µM each time. Further, the total growth inhibition concentration (TGI) in [13], in assay [14], in assay [15], in assay [16], in [17] and in [18] was above 2.5 µM in each case. The TGI in [19] and in [20] was above 2.5 µM throughout.

`CCOC(=O)c1sc2nc(SC)nc3c2c1NC(=O)CN3c1cccc(F)c1`: the total growth inhibition concentration (TGI) is above 100 µM in assay [1]; 46.8 µM in assay [2]; 38.8 µM in [3]; 67.7 µM in assay [4]; above 100 µM in [5]; 67.6 µM in assay [6]. Besides, the TGI in [7] was 28 µM; in assay [8], 28.1 µM; in assay [9], 55.6 µM; in assay [10], 47.9 µM; in assay [11] it was above 100 µM; in assay [12], 32 µM. The total growth inhibition concentration (TGI) in [13] is above 100 µM; in assay [14] it was 40.2 µM; in [15] it was above 100 µM; in assay [16], above 100 µM; in assay [17], 43.9 µM; in [18], above 100 µM. Also, the TGI was 35.1 µM in assay [19] and above 100 µM in assay [20].
